Test results taken from ChEMBL document CHEMBL1136578, “Synthesis of non-natural C2-homo-ceramide and its apoptotic activity against HL-60 cells” (2003).

test system: HL-60; test: Apoptotic activity against HL-60 (Human leukemia) cell after 6 hr of stimulation measured by MTT assay; assay type: functional

Row | SMILES | Apoptosis
1 | CCCCCCCCCCCCC/C=C/[C@@H](O)[C@H](CCCO)NC(C)=O | 52%
2 | CCCCCCCCCCCCCCC[C@@H](O)[C@H](CCCO)NC(C)=O | 20%
3 | CCCCCCCCCCCCC/C=C/[C@@H](O)[C@H](CO)NC(C)=O (stereo in doubt; form 1) | 62%
4 | CCCCCCCCCCCCC/C=C/[C@@H](O)[C@H](CCO)NC(C)=O | 48%
5 | CCCCCCCCCCCCCCC[C@@H](O)[C@H](CCO)NC(C)=O | 21%
